“Also recorded” adds a separate entry of the source. Like-named read-outs stand apart in the source and are kept apart here.
Key:
[1] = tested on: P2X7 receptor (CD4+CD25+ population); test: Effect of P2X7 antagonists on PMB/ATP-induced depletion of CD4+CD25+ population in splenocytes (Example 2); type: cell-based, mice; settings: for inhibition of the effect induced by ATP 100 μM over CD4+CD25+ population: BBG 100 nM (FIG. 5), A740003 (FIG. 6); for inhibition of the effect of low dose PMB and ATP over CD4+CD25+ populations: PPADS 10 μM, BBG 100 nM, PMB 1 μg/mL, ATP 60 μM and both, FIG. 4
Description: (§1) To determine the in vitro effect of polymyxin and other receptor modulators: P2X7, spleen from mice b6 and/or balbc were extracted, and splenocytes were isolated using repeated centrifugation, eliminating red cells for treatment with a lysis buffer ACK. Generally, the experiments were performed in cells obtained from animals b6. The obtained splenocytes are cultured in RPMI Medium supplemented with antibiotics and serum at 10%. Cells remain in rest for 2 hours at a concentration of 1 million cells/ml, after the same are breeding and incubated with purinergic agonists dissolved in PBS (ATP 0.1 μM-1,000 μM and NAD 0.01-1,000 μM), modulators of PMB receptor (0.001 up to 1,000 μg/m1) and gramicidine (0.001 up to 100 mg/ml). In the case of antagonists, these are used at concentrations which have been described as being more specific to P2X7 than other receptors.
Splenocytes were treated with PMB (Sigma-Aldrich, St Louis, Mont., USA) to different times and concentrations in presence of two modulators negative of the P2X7, PPADS activity and specific antagonist of P2X7 Brilliant Blue G (BBG) (see Brilliant Blue G Selectively Blocks ATP-Gated Rat P2X7 receptors. JIANG, 2000. 12). Cells were kept for 24 hrs in conditions of cell culture. Subsequently cells were recollected, blotted and analyzed by flow cytometry.

[2] = tested on: CD4+, CD8+ lymphocyte populations; test: In vitro effect on CD8 and CD4 populations in total mouse splenocyte population, flow cytometry (Example 1); type: cell-based, mice C57/BL6
Description: To determine the in vitro effect of polymyxin and other receptor modulators: P2X7, spleen from mice b6 and/or balbc were extracted, and splenocytes were isolated using repeated centrifugation, eliminating red cells for treatment with a lysis buffer ACK. Generally, the experiments were performed in cells obtained from animals b6. The obtained splenocytes are cultured in RPMI Medium supplemented with antibiotics and serum at 10%. […]
Cells are cultured for different time under a RPMI culture environment supplemented with antibiotics (penicillin, streptomycin and fungizone) with serum fetal bovine serum at 10% in a culture stove at 37° C. and 5% CO2, which will be named as standard conditions. […] Samples were analyzed in a cytometer of low and analized to different subpopulations to different evaluated times. […]
Splenocytes 2×10^6 cells/ml obtained from spleen of mice C57/BL6 (6 weeks old) were cutured by 1 hour in plates 24 wells at 37° C., 5% CO2. […] After the incubation cells were re-suspended in buffer IF and analyzed by flow cytometry in the equipment FACSCantoll (Beckett Dickinson, Mississauga, Ontario, USA). […]

[3] = tested on: Melanome murine cells B16; test: Antitumor immune therapy: immunization with B16 apoptotic bodies, then tumor challenge (Example 4); type: in vivo, mice; settings: for protection of challenged animals (free of tumor): cell bodies (CA B16) alone or with the additive; for prophylaxis against the development of tumor b16: given with cell bodies
Description: (§2) To evaluate the complementary PMB activity in antitumor therapy, first is determined the effect of this over the in vivo regulating T population. To this, animals having 6-15 weeks and different sex were subcutaneously injected with a solution containing PMB alone (between 4 to 400 μg total), ATP (between 0,4 a 40 mg total) or mixture thereof, in ratios which are not affected therebetween, the CD4CD25 foxp3 population. Animals were dead are different post-injection time, spleen was extracted, erythrocytes eliminated and T lymphocytes present evaluated. The results obtained herein allow determining that PMB injected deplexing regukating T lymphocytes under a transient way. To evaluate the complementary PMB activity in antitumor therapy, cells B16 were cultured under standard conditions in a culture DMEM medium with fetal bovine serum at 10% in a culture stove at 37° C. and 5% CO2. Cells were cultures and submitted to dead induced by deprivation of culture medium for 96 hours, into a culture stove. Cell bodies obtained were collected in sterility conditions and stored at a concentration estimated considering 1 million initial cells/ml. These bodies were prepared together with PMB and ATP inducing a reduction of T reg lymphocytes and injected 3 times each 7 days. After 7 days, once ended the immunization protocol, animals were challenged with 20.000 cells b16 alive obtained from exponential growing culture. Tumor growth was evaluated by hand after the first week daily and measure with a vernier calliper. The resuts obtained herein allow determining that PMB in vivo plus ATP and with cell bodies act in a prophylactic way increasing the number of animals free of tumor after the challenge with alive b16 cells.
Mice from 6 to 8 weeks old were treated with apoptotic bodies (CA) derived from Melanome murine cells B16 (2×10^4), with CA B16 plus ATP 500 μM, CA B16 plus PMB 10 mg/mL and with mixtures if the above three, the control was performed with the sterile immunization carrier PBS 1X.
Immunizations were performed by subcutaneous injection in the right flank in a final volume of 50 μL, at day 0, 7 and 21 of treatment. Day 0 marks the starting of the treatments. In day 28 post injection a tumor challenge was made. To that 10^4 tumor cells alive were injected in the left flank of the individual in a volume of 50 μL in sterile PBS 1X.
(§3) Mice were daily observed recording activity, weight and aspect according to parameters described by Morton y Griffiths, 1985 (see Morton D B, Griffiths P H. Guidelines on the recognition of pain, distress and discomfort in experimental animals and an hypothesis for assessment. Vet Rec. 1985 Apr. 20; 116(16):431-6). The tumor appearance was recorded and followed up to a tumor volume of 0.6 cm^3, in which animals were euthanized by cervical dislocation.

[4] = tested on: systemic regulating T lymphocytes in animal spleen; test: In vivo Treg lymphocyte depletion in spleen after subcutaneous injection (Examples 3 and 5); parameters: species or system mice C57/BL6; settings: for death of systemic regulating T lymphocytes in spleen, drug alone: day 3 post challenge, PMB up to 400 μg total or ATP up to 50 μmoles, FIGS. 10A-10C
Description: as §2, with “The results obtained herein allow determining that PMB injected deplexing regukating T lymphocytes under a transient way.” left out, “calliper.” for “calliper. The resuts obtained herein allow determining that PMB in vivo plus ATP and with cell bodies act in a prophylactic way increasing the number of animals free of tumor after the challenge with alive b16 cells.”
Mice were dead, the spleen was extracted and then marking with α-CD4, αCD25, α-CD8 and α-Foxp3 antibodies were made.
Subcutaneous injections were made in mice C57/BL6 of 6 weeks old with different concentrations of PMB, ATP or mixing concentrations of both. Mice were dead, the spleen extracted and subsequently markings were made with α-CD4, αCD25, α-CD8 and α-Foxp3 antibodies.

[5] = tested on: lymphoma EL4 y EL4/ADM, tumor cell lines C1498 y REH; settings: cited from earlier work
[6] = Secondary effects on health condition and regular behavior of treated animals; type: in vivo, mice; settings: effective dose in animals
Description: as §3

[7] = tested on: CD4+CD25+FOXP3+ lymphocyte populations (Treg); test: In vitro effect on Treg cells in total mouse splenocyte population, flow cytometry (Example 1); type: cell-based, mice C57/BL6; settings: for modification of the ATP-induced effect on Treg cells: ATP response curve, FIGS. 3A and 3B
Description: as §1
Cells are cultured for different time under a RPMI culture environment supplemented with antibiotics (penicillin, streptomycin and fungizone) with serum fetal bovine serum at 10% in a culture stove at 37° C. and 5% CO2, which will be named as standard conditions. To evaluate the effect of the treatment over regulating T lymphocytes, samples were taken for the treatments (independients) at 24, 48 and 72 hours post challenge. The recovered lymphocytes were centrifuged at 800 g and processed to be marked with antibodies against CD4, CD8, CD25. […] Samples were analyzed in a cytometer of low and analized to different subpopulations to different evaluated times. The results obtained herein allow determining that PMB in vitro under the described conditions, selectively deplexing to splenocyte regulating T lymphocytes.
Splenocytes 2×10^6 cells/ml obtained from spleen of mice C57/BL6 (6 weeks old) were cutured by 1 hour in plates 24 wells at 37° C., 5% CO2. Lately, cells were treated with PMB (Sigma-Aldrich, St Louis, Mont., USA) to different times and concentrations (0-24-48 and 72 hours, concentrations from 0.01 a 1,000 μg/ml). The treatments were kept for 24, 48 and 72 h, in which cells were kept into RPMI-1640 medium supplemented at 37° C. 5% CO2. After the treatments cells were harvested in buffer IF (PBS 2% SFB) could without dragging the adherent population. The obtained cells were blocked at 4° C. for 30 min in buffer IF. To determine the CD4+, CD8+y CD4+CD25+FOXP3+ lymphocyte populations, about 10^6 cells to were incubated with Anti-CD8 Ly-2 (BDpharmigen, Mississauga, Ontario, USA) 4° C. for 30 min with constant stirring and CD4+ T lymphocytes and Treg were identified with the kit of marking cells Treg #3 (eBioscience, San Diego, Calif., USA)as the manufacturer protocol. After the incubation cells were re-suspended in buffer IF and analyzed by flow cytometry in the equipment FACSCantoll (Beckett Dickinson, Mississauga, Ontario, USA). The same experiments above described were repeated evaluating the effect of gramicidine, ATP and ATP in presence of two PMB concentrations.

[8] = tested on: CD4+CD25+FOXP3+ lymphocyte populations (human Treg); test: Effect on human Treg lymphocyte populations in PBML from peripheral blood (Example 6); type: cell-based; settings: 24 h; FIG. 11
Description: PBML 2×10^6 cells/ml obtained from peripheral blood extracted by centrifugation in gradient was cultured under standard conditions. Subsequently cells were treated with PMB (Sigma-Aldrich, St Louis, Mont., USA). The Treatments were kept for 24 h, in which cell remain in RPMI-1640 medium supplemented at 37° C. 5% CO2. After the treatments cells were harvested in buffer IF (PBS 2% SFB) cold. The obtained cells were blocked at 4° C. for 30 min in buffer IF. To determine the CD4+, CD8+ and CD4+CD25+FOXP3+ lymphocyte populations. After incubation cells were resuspended in buffer IF and analyzed by flow cytometry in the FACSCantoll equipment (Beckett Dickinson, Mississauga, Ontario, USA).

[9] = total population of spleeny lymphocytes

Compound: polymyxin B [PMB]
- dependence of Treg depletion on P2X7 receptor activation ([1]; 24 hrs culture with PPADS or BBG): partially depends on the P2X7 receptor activation
- effect over CD8 / CD4 (T helper, T cytotoxic) populations [2, 9]: does not significantly affect; also recorded: without affecting the CD8 population neither the CD4 population
- protection of challenged animals (free of tumor) ([3]; day 20 after inoculation of tumor cells, ATP 500 μM, PMB 10 mg/mL): 60%
- protection of challenged animals (free of tumor) ([3]; day 60 post inoculation): 20%
- prophylaxis against the development of tumor b16 [3]: induces prophylaxis
- increase of effectiveness of antitumor immunotherapy based on tumor cell bodies ([3]; murine melanoma model): 50%
- potentiation of Treg lymphocyte depletion in vivo ([4]; after 72 hrs of in vivo exposition, PMB 150 and 350 μg/Kg with ATP 1 g/Kg): can potentiate the deplexion
- PMB dose giving maximum depletion of Tregs lymphocytes ([4]; at a determined ATP dose (1 g/Kg), subcutaneous, FIG. 8): 0.35 mg/kg
- dose behavior in depletion of Tregs lymphocytes ([4]; at a determined ATP dose, FIG. 8): linear behavior
- death of systemic regulating T lymphocytes in spleen, drug alone [4]: does not induce the death
- cell death in eukaryote tumor cell lines [5]: induces cell death
- secondary effects over health condition and regular behavior [6]: does not demonstrate the appearance of secondary effects
- depleting concentration relative to that used in clinical and therapeutic procedures [7]: 100 times lower
- modification of the ATP-induced effect on Treg cells ([7]; PMB at 1 μg/ml): slightly modifies the effect induced by ATP
- modification of the ATP-induced effect on Treg cells ([7]; PMB at 10 μg/ml): produces a significant change in the response curve to ATP
- effect over Treg (CD4+CD25+) population [7, 9]: able to induce the death
- PMB concentration at which PMB itself induces Treg cell depletion ([7]; total population of spleeny lymphocytes, FIGS. 1A and 1B): ≥ 1 µg/mL
- death of human Treg cells [8]: induces the death of Treg cells

Compound: CCOc1ccc(Nc2ccc(/C(=C3C=C/C(=[N+](/CC)Cc4cccc(S(=O)(=O)[O-])c4)C=C/3C)c3ccc(N(CC)Cc4cccc(S(=O)(=O)[O-])c4)cc3C)cc2)cc1.[Na+] [BBG, Brilliant Blue G]
- inhibition of the effect induced by ATP 100 μM over CD4+CD25+ population [1]: only inhibits
- inhibition of the effect of low dose PMB and ATP over CD4+CD25+ populations [1]: are inhibited

Compound: Nc1ncnc2c1ncn2[C@@H]1O[C@H](COP(=O)(O)OP(=O)(O)OP(=O)(O)O)[C@@H](O)[C@H]1O [ATP]
- prophylaxis against the development of tumor b16 [3]: induces prophylaxis
- death of systemic regulating T lymphocytes in spleen, drug alone [4]: does not induce the death
- death of human Treg cells [8]: induces the death of Treg cells

Compound: gramicidine
- effect over CD8 / CD4 (T helper, T cytotoxic) populations [2]: does not induce changes
- effect over Treg (CD4+CD25+) population [7, 9]: does not induce changes

Compound: Cc1nc(N=Nc2ccc(S(=O)(=O)O)cc2S(=O)(=O)O)c(COP(=O)(O)O)c(C=O)c1O [PPADS]
- inhibition of the effect of low dose PMB and ATP over CD4+CD25+ populations [1]: are inhibited

Compound: COc1ccc(CC(=O)NC(N=C(NC#N)Nc2cccc3ncccc23)C(C)(C)C)cc1OC (stereo not drawn) [A740003]
- inhibition of the effect induced by ATP 100 μM over CD4+CD25+ population [1]: inhibits only

Source: patent US20140371159A1, “IN VITRO METHOD FOR MODIFYING THE DEPLETION PROFILE OF TREG CELLS PRESENT IN A TOTAL SPLENOCYTE POPULATION OF A BIOLOGICAL SAMPLE BY MEANS OF THE ISOLATION, CULTURING AND EXPOSURE THEREOF TO AN ATP AND POLYMIXIN B MEDIUM” (Universidad de Santiago de Chile, priority 2011, published 2014)
